For one experiment, the system named is NF-kβ. The format is cell-based, rat. The procedure:
Preparation of Nuclear Extracts and Electrophoretic Mobility shift assay Nuclear extracts from stimulated or unstimulated astrocytes (1×10^7 cells) were prepared using the method of Dignam et al. (1983) with slight modification. Cells were harvested, washed twice with ice-cold phosphate-buffered saline and lysed in 400 μl of buffer A (10 mM HEPES, pH 7.9, 10 mM KCl, 2 mM MgCl2, 0.5 mM DTT, 1 mM PMSF, 5 μg/ml aprotinin, 5 μg/ml pepstatin A, and 5 μg/ml leupeptin (Sigma, St. Louis, Mo.) containing 0.1% Nondet P-40 for 15 min on ice, vortexed vigorously for 15 s, and centrifuged at 14,000 rpm for 30 s. The pelleted nuclei were resuspended in 40 μl of buffer B (20 mM HEPES, pH 7.9, 25% (v/v) glycerol, 0.42 M NaCl, 1.5 mM MgCl2, 0.2 mM EDTA, 0.5 mM DTT, 1 mM PMSF, 5 μg/ml aprotinin, 5 μg/ml pepstatin A, and 5 μg/ml leupeptin). After 30 min on ice, lysates were centrifuged at 14,000 rpm for 10 min. Supernatants containing the nuclear proteins were diluted with 20 μl of modified buffer C (20 mM HEPES, pH 7.9, 20% (v/v) glycerol, 0.05 M KCl, 0.2 mM EDTA, 0.5 mM DTT, and 0.5 mM PMSF) and stored at −70° C. until use. Nuclear extracts were used for the electrophoretic mobility shift assay using the NF-kβ DNA binding protein detection system kit (GIBCO/BRL), according to the manufacturer's protocol.
Preparation of nuclear extracts and electrophoretic mobility shift assay Nuclear extracts from stimulated or unstimulated astrocytes (1×10^7 cells) were prepared as described (Dignam et al., 1983) with slight modification. Cells were harvested, washed twice with ice-cold phosphate-buffered saline and lysed in 400 μl of buffer A (10 mM HEPES, pH 7.9, 10 mM KCl, 2 mM MgCl2, 0.5 mM DTT, 1 mM PMSF, 5 μg/ml aprotinin, 5 μg/ml pepstatin A, and 5 μg/ml leupeptin) containing 0.1% Nonidet P40 for 15 min on ice, vortexed vigorously for 15 s, and centrifuged at 14,000 rpm for 30 s. […]

The subject of the next experiment is iNOS gene. Kind of experiment: iNOS gene transcription (nuclear run-on assay) in rat primary astrocytes. The format is cell-based. The procedure:
[…]. In brief, the filters were prehybridized in 1 ml of hybridization buffer (50% formamide, 5×SSC, 1% SDS, 15% dextran sulfate, 1×Denhardt's solution, and 50 μg/ml heparin). After 24 h of prehybridization in the above buffer, hybridization was carried out with the labeled RNAs (1.3×10^5 cpm) at 42° C. for 60 h to 3 μg of the immobilized plasmid pGEM-T as a control, or to plasmids containing inserts of rat glyceraldehyde-3-phosphate dehydrogenase, rat actin, and human iNOS cDNAs. The filters were washed twice in 2×SSC, 0.1% SDS for 15 min at […], and twice in 0.5×SSC, 0.1% SDS for 15 min. Then the filters were treated with RNase buffer (300 mM NaCl, 10 mM TrisHCI, pH 7.4, 40 mM EDTA, 10 μg/ml RNase A, and 350 U/ml RNase T1) at 37° C. for 30 min, in the same buffer without RNases for another 30 min, and were then autoradiographed.

For the next experiment, the system named is iNOS. Kind of experiment: Immunofluorescence of iNOS in brain sections of EAE rats. In kind it is in vivo, Lewis rats. The procedure: One group of animals induced for EAE was left untreated while another group of animals was not induced for EAE and used as the control group.
Immunohistochemistry Brains were fixed in 10% buffered formalin (Stephens Scientific, Riverdale, N.J.). The tissues were embedded in paraffin and sectioned at 4 μm. Sections were then stained for various cytokines and cell markers as described below. For single-label immunohistochemistry, sections were incubated with either anti-iNOS antibody (1:100, rabbit polyclonal, Calbiochem, LaJolla, Calif.) or anti-TNF-α antibody (1:100, rabbit polyclonal, Genzyme, Cambridge, Mass.) or anti-IFN-γ antibody (1:200, rabbit polyclonal, Biosource International, Camarillo, Calif.) essentially as described for other antibodies (Hooper et al., 1997). The tissue sections were further incubated with FITC conjugated anti-rabbit IgG (1:100, Sigma, St. Louis, Mo.), mounted with mounting media (EMS) and analyzed by immunofluorescence microscopy (Olympus) using Adobe photoshop software. For immunofluorescent double-labeling, sections were incubated first with anti-iNOS (1:100) followed by macrophage marker ED1 (1:100, mouse monoclonal, Biosource International, Camarillo, Calif.). Anti-iNOS was visualized using TRITC conjugated anti-rabbit IgG—(1:100, Sigma, St. Louis, Mo.) and ED1 using FITC conjugated anti-mouse IgG (1:100, Sigma, St. Louis, Mo.). […]

Where two headings read alike, the source gives them in different places.

With `CC[C@H](C)C(=O)O[C@H]1C[C@@H](C)C=C2C=C[C@H](C)[C@H](CC[C@@H]3C[C@@H](O)CC(=O)O3)[C@H]21` [Lovastatin], in the experiment on NF-kβ (LPS 1.0 μg/ml, 1 h), the “LPS-induced activation of NF-kβ” value is on record as “markedly inhibited for the LPS-induced activation of NF-kβ”. In the experiment with iNOS gene (10 μM lovastatin, 5 mM NaPA or 2 μM lovastatin and 2 mM NaPA 8 h, LPS 1.0 μg/ml 4 h), the “LPS-induced nuclear transcription of the iNOS gene” value is reported as “inhibited the relative rate of LPS-induced nuclear transcription of the iNOS gene”.
On to `CC(=O)N[C@@H](CS)C(=O)O` [NAC, N-acetyl cysteine], for which, in the experiment with iNOS (daily i.p. treatment from day 1), the “expression of iNOS in EAE brain” value is “blocked the ability of MBP to induce the expression of iNOS”.
For the compound `O=C([O-])Cc1ccccc1.[Na+]` [NaPA, sodium salt of phenylacetic acid], in the experiment on iNOS (rat, in vivo, ip), the “expression of iNOS in EAE brain” value is on record as “blocked the ability of MBP to induce the expression of iNOS”. Also, the “LPS-induced activation of NF-kβ” value in the experiment on NF-kβ is listed as “markedly inhibited for the LPS-induced activation of NF-kβ”. In the experiment on iNOS gene, the “LPS-induced nuclear transcription of the iNOS gene” value is “inhibited the relative rate of LPS-induced nuclear transcription of the iNOS gene”.

The values above are taken from patent US8507219B2, “Method of treating inflammation with statins” (MUSC Foundation for Research Development, priority 1997, dated 2013).
